Results taken from patent US8895069B2, “Drug delivery system using hyaluronic acid-peptide conjugate micelle” (Postech Academy-Industry Foundation, priority 2011, dated 2014).
Ends that are not written are not given here.

Experiments:
[1] = test system: corneal neovascularization; assay: Corneal neovascularization after silver nitrate cauterization (Experimental Example 8); format: in vivo, Albino Sprague Dawley male rats; settings: rat cornea, subconjunctival 20 μL; Avastin 10 mg/ml, peptide and conjugate […] peptide; NV control 90.8±5%
Protocol: All animal tests including this experiment were conducted in compliance with the guidelines of the Catholic University of Korea and the principles of laboratory animal care; NIH publication No. 85-23 revised in 1985.
The rat was put under anesthesia by an intra-peritoneal injection of a mixed solution of 20 mg/kg of ketamine hydrochloride and 2.5 mg/kg of xylazine hydrochloride. […] In 3 days after the cauterization, subconjunctival administration was conducted with 20 μL of each of 4 sample solutions (a normal control group, NV control (neovascularization control: a control group wherein angiogenesis was made to occur and no drug was treated thereon), a solution comprising Avastin (Roche) dissolved in PBS at a concentration of 10 mg/ml, a solution comprising anti-Flt1 peptide (GGNQWFI) (SEQ ID NO: 3) dissolved in PBS at a concentration of 2.5 mg/ml, and a solution comprising the hyaluronic acid-peptide conjugate with a lower peptide concentration obtained from Preparation Example 3 as dissolved in PBS at a concentration of 2.5 mg/ml based on the content of anti-Flt1 peptide). […] The obtained images were subjected to quantitative analysis with Image J program (Ver. 1.38, National Institute of Health, MD).

[2] = test system: vascular hyperpermeability due to diabetic retinopathy; assay: Vascular hyperpermeability due to diabetic retinopathy, streptozotocin, dextran-FITC fluorescence (Experimental Example 10); format: in vivo, Sprague Dawley (SD) male rats; settings: hyaluronic acid test group = 100%; intravitreal 10 μL, peptide 5 mg/ml; four weeks after streptozotocin
From the text: Four groups consisted of a hyaluronic acid test group, an anti-Flt1 peptide (GGNQWFI) (SEQ ID NO: 3) test group, a test group of the hyaluronic acid-peptide conjugate with a lower peptide content (with 20 peptides being conjugated per one molecule of HA-TBA) as prepared from Preparation Example 3 (HA-GGNQWFI), and a test group of the hyaluronic acid-peptide conjugate with a higher peptide content (with 28 peptides being conjugated per one molecule of HA-TBA) as prepared from Preparation Example 3(HA-GGNQWFI(2)). The anti-Flt1 peptide sample and the hyaluronic acid-peptide conjugate samples were made to have an identical peptide concentration of 5 mg/ml. First, each rat was injected intraperitonially with 60 mg/kg of streptozotocin dissolved in 10 mM citrate buffer at pH 4.5 in order for diabetes to be induced. In three days after the injection of streptozotocin, the rat was determined to develop diabetes when its serum concentration of glucose was at least 300 mg/dL. In a week after the injection of streptozotocin, 10 μL of each sample solution was injected into the vitroeus body. In four weeks after the injection of streptozotocin, the effect of inhibiting vascular hyperpermeability due to diabetic retinopathy was determined by the fluorescence microscopic analysis with using dextran-FITC (MW=10,000) in the same manner as set forth in Experimental Example 7-1.

[3] = Pharmacokinetics in the vitreous body after intravitreal injection; format: in vivo, Sprague Dawley (SD) male rats
Protocol: Three groups consisted of a hyaluronic acid (HA) test group, an anti-Flt1 peptide (GGNQWFI) (SEQ ID NO: 3) test group, and a test group of the hyaluronic acid-peptide conjugate with a lower peptide content as prepared from Preparation Example 3 (HA-GGNQWFI). The anti-Flt1 peptide sample and the hyaluronic acid-peptide conjugate sample were made to have an identical peptide concentration of 5 mg/ml. 10 μL of each sample solution was injected into the vitroeus body, which was sampled in 6 hours, 1 day, 3 days, 7 days, 10 days, and 14 days and stored at −20° C. until analysis. The concentration of the anti-Flt1 peptide in the vitreous body was measured with fluorescence analysis. Specifically, the vitreous body was disintegrated by using 200 μL of RIPA buffer, and then subjected to centrifugation under 14,000 g at 4° C. for 10 minutes to provide a supernatant solution. By using a spectrofluorometer (Cary Eclipse Fluorescence Spectrophotometer, Varian, Australia), the photoluminescence of each sample was measured at an excitation wave length of 280 nm and an emission wavelength of 350 nm. The vitreous body of the SD rat that was not treated at all was used as a blank control.

[4] = test system: retinal and choroidal neovascularization (CNV); assay: Laser-induced retinal and choroidal neovascularization (CNV); format: in vivo, Brovin-Norway (BN) male rats; settings: negative control = 100%; intravitreal 10 μL, peptide concentration 10 mg/ml; 2 weeks after laser; conjugate = higher peptide content
Protocol: Four groups consisted of a negative control group, a hyaluronic acid test group, an anti-Flt1 peptide (GGNQWFI) (SEQ ID NO: 3) test group, a test group of the hyaluronic acid-peptide conjugate with a higher peptide content as prepared from Preparation Example 3 (HA-GGNQWFI(2)). The anti-Flt1 peptide sample and the hyaluronic acid-peptide conjugate sample were made to have an identical peptide concentration of 10 mg/ml. First, the rat was put under anesthesia by being treated with 0.2 mL of a mixed solution (1:1) of 100 mg/ml of ketamine hydrochloride and 20 mg/ml of xylazine hydrochloride. […] The effect of inhibiting retinal and choroidal neovascularization was determined with a fluorescence microscope analysis using dextran-FITC (MW=40,000) after 2 weeks from the laser-induced damage. After being put under anesthesia, the rat was injected with 500 μL of a dextran-FITC solution (25 mg/mL) at its tail vein, and in 5 minutes, the choroid was separated and observed with a fluorescence microscope equipped with a digital camera (Olympus, Tokyo, Japan). The obtained images were analyzed with Image J program (NIH, Bethesda, Md.).

[5] = TEM particle size of micelle; format: physicochemical; settings: spherical particle, n=30
Protocol: The anti-Flt1 peptide (GGNQWFI) (SEQ ID NO: 3) and the hyaluronic acid-peptide conjugate with a lower peptide content as prepared from Preparation Example 3 were dissolved in 4004, of PBS to have a final peptide concentration of 1.25 mg/mL, respectively. The amount of the anti-Flt1 peptide contained in each solution was measured with a changeable UV transilluminator (DUT-260, Core Bio System, Korea) by using 312 nm of light source. The formation of the hyaluronic acid-peptide micelle in an aqueous solution was confirmed by using a transmission electron microscope (TEM) (Hitachi, Tokyo, Japan). For a TEM analysis, 10 μL of the hyaluronic acid-peptide conjugate solution was dropped onto a 300 mesh copper TEM grid with a carbon film and then was dried. The average particle size was calculated out from the diameters obtained from the images of 30 particles.
For a transmission electron microscope (TEM) (Hitachi, Tokyo, Japan) analysis, 10 μL of the solution of the drug-loaded, hyaluronic acid-peptide conjugate micelle was dropped onto a 300 mesh copper TEM grid with a carbon film and then was dried.

[6] = male, Sprague Dawley (SD), vitreous body, 50 µg, rat, single intravitreal 10 μL, peptide 5 mg/ml
[7] = rat, single intravitreal 10 μL, peptide 5 mg/ml

Row | Cmax [3, 6] | Tmax [3, 6] | Substance | average ratio of the neovascular area [1] | average intensity of the fluorescence of retina (dextran-FITC) [2] | time for which the concentration in the vitreous body was maintained above base line [3, 7] | average intensity of the fluorescence of CNV lesion [4] | average diameter by TEM [5] | Cmax in the vitreous body [3, 7] | Tmax in the vitreous body [3, 7] | AUC / bioavailability (AUC/dose) in the vitreous body ([3]; same dose, compared with anti-Flt1 peptide)
1 | 800 ± 700 µg/mL | 24 h | GGNQWFI [anti-Flt1 peptide, GGNQWFI] | 27±5.7% | 79.0±9.2% | < 10 days | 61.4±4.4% |  |  |  | 
2 |  |  | HA-GGNQWFI: hyaluronic acid (MW 100 kDa) conjugated with GGNQWFI, 20 peptides per one molecule of HA-TBA (also: conjugated to hyaluronic acid, about 20 peptides per HA) | 17.4±5.6% | 58.4±7.8% | at least 14 days |  | 234.5±20.6 nm | 1600 ± 600 µg/mL | 6 h | higher AUC than that of the anti-Flt1 peptide
